Test results as given in patent publication US10759783B2, “Biaryl inhibitors of Bruton'S tyrosine kinase” (BIOGEN MA INC., priority 2013, dated 2020).
Like-named read-outs stand apart in the source and are kept apart here.

Assays:
[1] = target: T1, BTK enzyme (Homo sapiens, UniProt Q06187); experiment: In vitro BTK kinase assay: BTK-POLYGAT-LS assay; assay type: biochemical; conditions: ATP 10 μM, read-out: IC50 (10uMATP)
T1 construct: purchased Upstate 14-552
Summary of the method: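 Human BTK activity was measured with final 10 μM ATP and 100 nM polyGAT substrate in pH 7.5 Tris buffer with 10 mM MgCl2, DTT, Triton X-100 and casein.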

[2] = target: BTK (phospho-BTK) in human whole blood (Homo sapiens, UniProt Q06187); experiment: In vitro PD assay in human whole blood (pBTK assay)
Chain of BTK (phospho-BTK) in human whole blood (Q06187 whole entry): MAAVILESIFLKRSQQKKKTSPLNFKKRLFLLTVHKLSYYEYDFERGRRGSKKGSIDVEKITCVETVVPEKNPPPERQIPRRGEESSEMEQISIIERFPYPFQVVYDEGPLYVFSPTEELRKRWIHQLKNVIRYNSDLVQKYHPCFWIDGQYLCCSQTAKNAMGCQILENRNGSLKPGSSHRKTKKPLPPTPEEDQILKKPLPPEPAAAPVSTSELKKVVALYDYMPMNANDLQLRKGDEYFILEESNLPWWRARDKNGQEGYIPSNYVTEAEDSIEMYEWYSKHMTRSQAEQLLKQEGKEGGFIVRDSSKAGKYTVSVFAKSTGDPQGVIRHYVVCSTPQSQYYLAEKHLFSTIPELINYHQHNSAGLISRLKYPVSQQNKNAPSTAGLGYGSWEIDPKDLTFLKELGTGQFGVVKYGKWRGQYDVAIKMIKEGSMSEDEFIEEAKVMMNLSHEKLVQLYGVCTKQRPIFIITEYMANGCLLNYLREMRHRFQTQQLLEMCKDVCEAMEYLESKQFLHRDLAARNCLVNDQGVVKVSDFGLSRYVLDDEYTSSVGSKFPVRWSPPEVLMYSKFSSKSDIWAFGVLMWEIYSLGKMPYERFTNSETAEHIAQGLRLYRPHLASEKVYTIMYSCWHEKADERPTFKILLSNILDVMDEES

T1 sequence (Q06187 whole entry): as above

SMILES	IC50 [1]	IC50 ([2]; read-out: pBTK IC50, human whole blood, 37° C. for 30 min)	IC50 [2]
Cc1cc(-c2ccnc(Nc3cnn(C)c3)n2)ccc1CNC(=O)c1nc2c(s1)CCC2 [Example I-10, N-(2-methyl-4-(2-((1-methyl-1H-pyrazol-4-yl)amino)pyrimidin-4-yl)benzyl)-5,6-dihydro-4H-cyclopenta[d]thiazole-2-carboxamide]	< 10 nM	–	< 500 nM
Cc1cc(-c2ccnc(Nc3cnn(C)c3)n2)ccc1CN1Cc2nc(C(C)(C)C)sc2C1=O [Example I-12, 2-(tert-butyl)-5-(2-methyl-4-(2-((1-methyl-1H-pyrazol-4-yl)amino)pyrimidin-4-yl)benzyl)-4H-pyrrolo[3,4-d]thiazol-6(5H)-one]	< 10 nM	–	< 500 nM
Cc1cc(-c2ccnc(Nc3cnn(C)c3)n2)ccc1CN1Cc2cc(C3CC3)sc2C1=O [Example I-13, 2-cyclopropyl-5-(2-methyl-4-(2-((1-methyl-1H-pyrazol-4-yl)amino)pyrimidin-4-yl)benzyl)-4H-thieno[2,3-c]pyrrol-6(5H)-one]	< 10 nM	–	1500 to 10000 nM
Cc1cc(-c2ccnc(Nc3cnn(C)c3)n2)ccc1CNC(=O)c1cc2c(s1)CCCO2 [Example I-15, N-(2-methyl-4-(2-((1-methyl-1H-pyrazol-4-yl)amino)pyrimidin-4-yl)benzyl)-6,7-dihydro-5H-thieno[3,2-b]pyran-2-carboxamide]	< 10 nM	–	< 500 nM
Cc1cc(-c2ccnc(Nc3cnn(C)c3)n2)ccc1CNC(=O)N1CCC(C(F)(F)F)CC1 [Example I-19, N-(2-methyl-4-(2-((1-methyl-1H-pyrazol-4-yl)amino)pyrimidin-4-yl)benzyl)-4-(trifluoromethyl)piperidine-1-carboxamide]	< 10 nM	–	500 to 1500 nM
Cc1cc(-c2ccnc(Nc3cnn(C)c3)n2)ccc1CNC(=O)N1CCC(C(C)(C)C)CC1 [Example I-20, 4-(tert-butyl)-N-(2-methyl-4-(2-((1-methyl-1H-pyrazol-4-yl)amino)pyrimidin-4-yl)benzyl)piperidine-1-carboxamide]	< 10 nM	–	500 to 1500 nM
Cc1cc(-c2ccnc(Nc3cnn(C)c3)n2)ccc1CNC(=O)N1CCN(C(C)(C)C)CC1 [Example I-23, 4-(tert-butyl)-N-(2-methyl-4-(2-((1-methyl-1H-pyrazol-4-yl)amino)pyrimidin-4-yl)benzyl)piperazine-1-carboxamide]	100 to 999 nM	–	1500 to 10000 nM
Cc1cc(-c2ccnc(Nc3cnn(C)c3)n2)ccc1CNC(=O)N1CCOC(C(C)C)C1 (stereo not drawn) [Example I-24, 2-isopropyl-N-(2-methyl-4-(2-((1-methyl-1H-pyrazol-4-yl)amino)pyrimidin-4-yl)benzyl)morpholine-4-carboxamide]	10 to 99 nM	–	1500 to 10000 nM
Cc1cc(-c2cc(Nc3cc4n(n3)CCN(C)C4)ncn2)ccc1CNC(=O)c1cnn(C(C)(C)C)c1 [Example I-150, 1-(tert-butyl)-N-(2-methyl-4-(6-((5-methyl-4,5,6,7-tetrahydropyrazolo[1,5-a]pyrazin-2-yl)amino)pyrimidin-4-yl)benzyl)-1H-pyrazole-4-carboxamide]	< 10 nM	–	–
Cc1cc(-c2cc(Nc3ccn(CCO)n3)ncn2)ccc1CNC(=O)c1cnc(C(C)(C)C)s1 [Example I-151, 2-(tert-butyl)-N-(4-(6-((1-(2-hydroxyethyl)-1H-pyrazol-3-yl)amino)pyrimidin-4-yl)-2-methylbenzyl)thiazole-5-carboxamide]	< 10 nM	–	–
Cc1cc(-c2ccnc(Nc3cnn(C)c3)n2)ccc1CNC(=O)N1CC(OC(C)(C)C)C1 [Example I-152, 3-(tert-butoxy)-N-(2-methyl-4-(2-((1-methyl-1H-pyrazol-4-yl)amino)pyrimidin-4-yl)benzyl)azetidine-1-carboxamide]	< 10 nM	–	–
Cc1cc(-c2ccnc(Nc3cnn(C)c3)n2)ccc1CNC(=O)c1cc(C(C)(C)C)on1 [Example I-153, 5-(tert-butyl)-N-(2-methyl-4-(2-((1-methyl-1H-pyrazol-4-yl)amino)pyrimidin-4-yl)benzyl)isoxazole-3-carboxamide]	< 10 nM	–	–
Cc1cc(-c2ccnc(Nc3cnn(C)c3)n2)ccc1CNC(=O)c1cnn(C(C)(C)C)c1 [Example I-154, 1-(tert-butyl)-N-(2-methyl-4-(2-((1-methyl-1H-pyrazol-4-yl)amino)pyrimidin-4-yl)benzyl)-1H-pyrazole-4-carboxamide]	< 10 nM	–	–
Cc1cc(-c2ccnc(Nc3cnn(C)c3)n2)ccc1CNC(=O)c1ccn(C)c1 [Example I-155, 1-Methyl-N-(2-methyl-4-(2-((1-methyl-1H-pyrazol-4-yl)amino)pyrimidin-4-yl)benzyl)-1H-pyrrole-3-carboxamide]	10 to 99 nM	–	–
Cc1cc(-c2ccnc(Nc3cnn(C)c3)n2)ccc1CNC(=O)c1cn2c(n1)CCCC2 [Example I-156, N-(2-Methyl-4-(2-((1-methyl-1H-pyrazol-4-yl)amino)pyrimidin-4-yl)benzyl)-5,6,7,8-tetrahydroimidazo[1,2-a]pyridine-2-carboxamide]	100 to 999 nM	–	–
Cc1cc(-c2ccnc(Nc3cnn(C)c3)n2)ccc1CNC(=O)c1cnn(C)c1 [Example I-157, 1-Methyl-N-(2-methyl-4-(2-((1-methyl-1H-pyrazol-4-yl)amino)pyrimidin-4-yl)benzyl)-1H-pyrazole-4-carboxamide]	10 to 99 nM	–	–
Cc1cc(-c2ccnc(Nc3cnn(C)c3)n2)ccc1CNC(=O)c1cccn1C [Example I-158, 1-Methyl-N-(2-methyl-4-(2-((1-methyl-1H-pyrazol-4-yl)amino)pyrimidin-4-yl)benzyl)-1H-pyrrole-2-carboxamide]	100 to 999 nM	–	–
Cc1cc(-c2ccnc(Nc3cnn(C)c3)n2)ccc1CNC(=O)c1cc2n(n1)CCCC2 [Example I-159, N-(2-Methyl-4-(2-((1-methyl-1H-pyrazol-4-yl)amino)pyrimidin-4-yl)benzyl)-4,5,6,7-tetrahydropyrazolo[1,5-a]pyridine-2-carboxamide]	< 10 nM	–	–
Cn1cc(Nc2nccc(-c3ccc4c(c3)CCCCC4NC(=O)c3cnn(C(C)(C)C)c3)n2)cn1 (stereo not drawn) [Example I-257, 1-tert-butyl-N-[2-[2-[(1-methylpyrazol-4-yl)amino]pyrimidin-4-yl]-6,7,8,9-tetrahydro-5H-benzo[7]annulen-5-yl]pyrazole-4-carboxamide]	–	–	< 500 nM
[2H]C([2H])([2H])C(OC1CN(C(=O)NCc2ccc(-c3ccnc(Nc4cnn(CC)c4)n3)cc2C)C1)C([2H])([2H])[2H] [Example I-262, N-[[4-[2-[(1-ethylpyrazol-4-yl)amino]pyrimidin-4-yl]-2-methyl-phenyl]methyl]-3-(1,1,1,3,3,3-d6)isopropoxy-azetidine-1-carboxamide]	–	–	< 500 nM

Other lines, results leading:

IC50 [1]	IC50 ([2]; read-out: pBTK IC50, human whole blood, 37° C. for 30 min)	IC50 [2]	SMILES
< 10 nM	< 500 nM	–	Cc1cc(-c2ccnc(Nc3cnn([C@@H]4CCNC[C@H]4F)c3)n2)ccc1CNC(=O)N1CC(OC(C)C)C1 (relative stereo) [Example I-220]
< 10 nM	–	< 500 nM	Cc1cc(-c2ccnc(Nc3cnn(C4CCC(C(=O)O)CC4)c3)n2)ccc1CNC(=O)c1cnn(C(C)(C)C)c1 (stereo in doubt) [Example I-195, cis-4-(4-((4-(4-((1-(tert-butyl)-1H-pyrazole-4-carboxamido)methyl)-3-methylphenyl)pyrimidin-2-yl)amino)-1H-pyrazol-1-yl)cyclohexanecarboxylic acid]
< 10 nM	–	< 500 nM	Cc1cc(-c2ccnc(Nc3cnn(C)c3)n2)ccc1CNC(=O)c1cnc(C(C)(C)C)s1 [Example I-1, 2-(tert-butyl)-N-(2-methyl-4-(2-((1-methyl-1H-pyrazol-4-yl)amino)pyrimidin-4-yl)benzyl)thiazole-5-carboxamide]
< 10 nM	–	500 to 1500 nM	Cc1cc(-c2ccnc(Nc3cnn(C)c3)n2)ccc1CNC(=O)c1cc2c(s1)CCNC2 [Example I-2, N-(2-methyl-4-(2-((1-methyl-1H-pyrazol-4-yl)amino)pyrimidin-4-yl)benzyl)-4,5,6,7-tetrahydrothieno[3,2-c]pyridine-2-carboxamide]
< 10 nM	–	1500 to 10000 nM	Cc1cc(-c2ccnc(Nc3cnn(C)c3)n2)ccc1CNC(=O)c1cc2c(s1)CCOC2 [Example I-3, N-(2-methyl-4-(2-((1-methyl-1H-pyrazol-4-yl)amino)pyrimidin-4-yl)benzyl)-6,7-dihydro-4H-thieno[3,2-c]pyran-2-carboxamide]
< 10 nM	–	1500 to 10000 nM	Cc1cc(-c2ccnc(Nc3cnn(C)c3)n2)ccc1CNC(=O)c1cnc(C(F)(F)F)s1 [Example I-4, N-(2-methyl-4-(2-((1-methyl-1H-pyrazol-4-yl)amino)pyrimidin-4-yl)benzyl)-2-(trifluoromethyl)thiazole-5-carboxamide]
< 10 nM	–	500 to 1500 nM	Cc1cc(-c2ccnc(Nc3cnn(C)c3)n2)ccc1CNC(=O)c1cc2c(s1)CCCC2 [Example I-5, N-(2-methyl-4-(2-((1-methyl-1H-pyrazol-4-yl)amino)pyrimidin-4-yl)benzyl)-4,5,6,7-tetrahydrobenzo[b]thiophene-2-carboxamide]
< 10 nM	–	500 to 1500 nM	Cc1cc(-c2ccnc(Nc3cnn(C)c3)n2)ccc1CNC(=O)c1ccc(C(C)(C)C)cn1 [Example I-6, 5-(tert-butyl)-N-(2-methyl-4-(2-((1-methyl-1H-pyrazol-4-yl)amino)pyrimidin-4-yl)benzyl)picolinamide]
< 10 nM	–	500 to 1500 nM	Cc1cc(-c2ccnc(Nc3cnn(C)c3)n2)ccc1CNC(=O)c1ccc(C(C)(C)C)cc1 [Example I-7, 4-(tert-butyl)-N-(2-methyl-4-(2-((1-methyl-1H-pyrazol-4-yl)amino)pyrimidin-4-yl)benzyl)benzamide]
< 10 nM	–	500 to 1500 nM	Cc1cc(-c2ccnc(Nc3cnn(C)c3)n2)ccc1CNC(=O)c1nc2c(s1)CCCC2 [Example I-9, N-(2-methyl-4-(2-((1-methyl-1H-pyrazol-4-yl)amino)pyrimidin-4-yl)benzyl)-4,5,6,7-tetrahydrobenzo[d]thiazole-2-carboxamide]
